Patent US9999622B2, “Pyrazolothiazole compound and medicine comprising same” (NIPPON SHINYAKU CO., LTD., priority 2014, dated 2018)
Where a name gives a salt, the structure may show the parent alone.

Tests used:
JAK3 = target: T1, JAK3 (Homo sapiens, UniProt P52333); assay: JAK tyrosine kinase inhibitory activity in the presence of 1 mM ATP (ELISA), JAK3; assay type: biochemical
T1 construct: purchased Carna Biosciences, Inc
T1 sequence (P52333 1-1124): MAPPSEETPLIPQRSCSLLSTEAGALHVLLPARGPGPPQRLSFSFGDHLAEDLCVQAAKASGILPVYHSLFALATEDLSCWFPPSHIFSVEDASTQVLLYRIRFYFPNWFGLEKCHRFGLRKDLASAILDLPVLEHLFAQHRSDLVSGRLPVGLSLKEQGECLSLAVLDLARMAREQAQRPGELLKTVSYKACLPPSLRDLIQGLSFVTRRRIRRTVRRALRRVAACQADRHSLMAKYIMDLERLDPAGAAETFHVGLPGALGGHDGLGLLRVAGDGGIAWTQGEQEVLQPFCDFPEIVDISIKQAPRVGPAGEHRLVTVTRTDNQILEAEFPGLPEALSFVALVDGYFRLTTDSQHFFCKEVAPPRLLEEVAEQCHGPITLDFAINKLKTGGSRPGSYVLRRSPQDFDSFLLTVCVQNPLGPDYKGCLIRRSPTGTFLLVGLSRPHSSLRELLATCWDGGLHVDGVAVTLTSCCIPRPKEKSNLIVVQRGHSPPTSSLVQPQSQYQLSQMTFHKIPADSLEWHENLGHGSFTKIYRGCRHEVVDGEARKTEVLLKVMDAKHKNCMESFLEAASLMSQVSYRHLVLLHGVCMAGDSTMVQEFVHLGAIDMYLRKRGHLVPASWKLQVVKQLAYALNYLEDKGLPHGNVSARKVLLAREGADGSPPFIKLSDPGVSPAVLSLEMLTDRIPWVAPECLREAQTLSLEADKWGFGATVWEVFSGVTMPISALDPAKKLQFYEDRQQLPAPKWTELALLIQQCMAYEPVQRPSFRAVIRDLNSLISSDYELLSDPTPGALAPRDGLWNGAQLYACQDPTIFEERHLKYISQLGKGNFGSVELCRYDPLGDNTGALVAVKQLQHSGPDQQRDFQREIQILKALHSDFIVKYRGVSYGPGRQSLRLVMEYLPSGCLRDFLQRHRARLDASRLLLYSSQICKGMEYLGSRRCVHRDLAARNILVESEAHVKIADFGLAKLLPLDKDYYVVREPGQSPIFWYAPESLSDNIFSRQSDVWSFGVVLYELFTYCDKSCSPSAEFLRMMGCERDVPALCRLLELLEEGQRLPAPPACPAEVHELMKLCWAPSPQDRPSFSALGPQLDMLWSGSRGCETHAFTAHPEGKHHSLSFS
In short: (§1)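 ELISA read-out: HRP-labelled anti-phosphotyrosine antibody with TMB, absorbance 450 nm, after 1 h kinase reaction at 30 °C in presence of 1 mM ATP. Kinase diluted to 7.5 nM (JAK1) or 0.75 nM (JAK2/JAK3) in Tris-HCl pH 7.5 buffer with DTT; compounds tested in duplicate.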

JAK1 = target: T2, JAK1 (Homo sapiens, UniProt P23458); assay: JAK tyrosine kinase inhibitory activity in the presence of 1 mM ATP (ELISA), JAK1; assay type: biochemical
T2 construct: purchased Carna Biosciences, Inc
In short: as §1

[1] = tested on: Aspergillus-induced airway inflammation model; assay: Inhibitory effect on Aspergillus-induced airway inflammation model; assay type: in vivo; conditions: mice; for Inhibition rate on count of invasive eosinophil in BALF (%): oral, 10 mg/mL suspension at 10 mL/kg twice a day Day 0 to Day 9, BALF collected at Day 10; for inhibition in vivo at 10000 µg/mL, 100 mg/kg: Mus musculus, Eosinophil, po, 240 h, 10 mg/mL suspension at 10 mL/kg twice a day Day 0 to Day 9, BALF collected at Day 10, read-out: Inhibition rate on count of invasive eosinophil in BALF (%)
Protocol: Aspergillus fumigatus extracts (Greer laboratories, Inc.) were adjusted to 400 μg/mL with PBS. The Aspergillus fumigatus solutions thus prepared were administered to mice as nasal drops (50 μL) on Day 0, Day 1, Day 7 and Day 8. The nasal drop was administered one hour after the administration of test compounds in the morning. The test compound was administered twice a day in the morning and evening of Day 0 to Day 9. The test compound was suspended in 0.5% methylcellulose at 10 mg/mL, and orally administered at the dosage of 10 mL/kg. The bronchoalveolar lavage fluid (BALF) was collected at Day 10, and the total white blood cell count in BALF was measured using Celltac (NIHON KOHDEN). The ratio of eosinophil in total white blood cell was calculated using ADVIA 120 (Siemens Healthcare Diagnostics), and the ratio was multiplied by the total white blood cell count to determine the eosinophil count in BALF. The inhibition rate of the test compound was determined, assuming the inhibitory ratio in the treatment with Aspergillus fumigatus extract and 0.5% methylcellulose as 0% and the inhibitory ratio in the treatment without Aspergillus fumigatus extract but with 0.5% methylcellulose as 100%.

JAK2 = target: T3, JAK2 (Homo sapiens, UniProt O60674); assay: JAK tyrosine kinase inhibitory activity in the presence of 1 mM ATP (ELISA), JAK2; assay type: biochemical
T3 construct: purchased Carna Biosciences, Inc
In short: as §1

T2 sequence (P23458 whole entry): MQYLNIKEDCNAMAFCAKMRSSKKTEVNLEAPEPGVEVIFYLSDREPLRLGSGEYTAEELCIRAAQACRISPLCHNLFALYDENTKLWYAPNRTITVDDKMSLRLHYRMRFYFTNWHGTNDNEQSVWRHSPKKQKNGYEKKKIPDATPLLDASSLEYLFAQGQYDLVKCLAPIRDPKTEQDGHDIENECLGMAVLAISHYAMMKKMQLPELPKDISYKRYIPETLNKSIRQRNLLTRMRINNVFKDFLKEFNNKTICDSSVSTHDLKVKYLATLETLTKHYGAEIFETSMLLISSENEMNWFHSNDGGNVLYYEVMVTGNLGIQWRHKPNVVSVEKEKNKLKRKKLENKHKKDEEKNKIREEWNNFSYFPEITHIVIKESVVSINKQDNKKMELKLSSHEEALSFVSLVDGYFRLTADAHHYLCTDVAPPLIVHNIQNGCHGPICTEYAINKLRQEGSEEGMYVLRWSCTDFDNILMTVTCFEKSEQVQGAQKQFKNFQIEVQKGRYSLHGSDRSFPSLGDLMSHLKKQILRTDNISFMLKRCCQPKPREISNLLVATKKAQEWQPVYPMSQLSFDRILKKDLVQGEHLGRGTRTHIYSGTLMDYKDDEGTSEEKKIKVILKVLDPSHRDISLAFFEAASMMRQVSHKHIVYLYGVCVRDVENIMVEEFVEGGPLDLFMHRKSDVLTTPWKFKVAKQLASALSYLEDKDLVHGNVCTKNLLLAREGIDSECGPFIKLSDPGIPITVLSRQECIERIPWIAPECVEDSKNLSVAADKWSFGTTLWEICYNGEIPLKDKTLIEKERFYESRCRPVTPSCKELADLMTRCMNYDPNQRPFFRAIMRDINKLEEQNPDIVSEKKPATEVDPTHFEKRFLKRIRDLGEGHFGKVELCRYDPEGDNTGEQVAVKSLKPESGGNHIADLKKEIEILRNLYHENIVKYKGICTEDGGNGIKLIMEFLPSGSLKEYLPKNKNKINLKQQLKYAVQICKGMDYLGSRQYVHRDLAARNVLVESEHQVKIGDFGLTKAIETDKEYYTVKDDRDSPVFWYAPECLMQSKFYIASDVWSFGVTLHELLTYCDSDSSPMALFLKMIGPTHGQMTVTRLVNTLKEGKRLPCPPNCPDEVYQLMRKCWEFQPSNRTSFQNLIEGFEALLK
T3 sequence (O60674 whole entry): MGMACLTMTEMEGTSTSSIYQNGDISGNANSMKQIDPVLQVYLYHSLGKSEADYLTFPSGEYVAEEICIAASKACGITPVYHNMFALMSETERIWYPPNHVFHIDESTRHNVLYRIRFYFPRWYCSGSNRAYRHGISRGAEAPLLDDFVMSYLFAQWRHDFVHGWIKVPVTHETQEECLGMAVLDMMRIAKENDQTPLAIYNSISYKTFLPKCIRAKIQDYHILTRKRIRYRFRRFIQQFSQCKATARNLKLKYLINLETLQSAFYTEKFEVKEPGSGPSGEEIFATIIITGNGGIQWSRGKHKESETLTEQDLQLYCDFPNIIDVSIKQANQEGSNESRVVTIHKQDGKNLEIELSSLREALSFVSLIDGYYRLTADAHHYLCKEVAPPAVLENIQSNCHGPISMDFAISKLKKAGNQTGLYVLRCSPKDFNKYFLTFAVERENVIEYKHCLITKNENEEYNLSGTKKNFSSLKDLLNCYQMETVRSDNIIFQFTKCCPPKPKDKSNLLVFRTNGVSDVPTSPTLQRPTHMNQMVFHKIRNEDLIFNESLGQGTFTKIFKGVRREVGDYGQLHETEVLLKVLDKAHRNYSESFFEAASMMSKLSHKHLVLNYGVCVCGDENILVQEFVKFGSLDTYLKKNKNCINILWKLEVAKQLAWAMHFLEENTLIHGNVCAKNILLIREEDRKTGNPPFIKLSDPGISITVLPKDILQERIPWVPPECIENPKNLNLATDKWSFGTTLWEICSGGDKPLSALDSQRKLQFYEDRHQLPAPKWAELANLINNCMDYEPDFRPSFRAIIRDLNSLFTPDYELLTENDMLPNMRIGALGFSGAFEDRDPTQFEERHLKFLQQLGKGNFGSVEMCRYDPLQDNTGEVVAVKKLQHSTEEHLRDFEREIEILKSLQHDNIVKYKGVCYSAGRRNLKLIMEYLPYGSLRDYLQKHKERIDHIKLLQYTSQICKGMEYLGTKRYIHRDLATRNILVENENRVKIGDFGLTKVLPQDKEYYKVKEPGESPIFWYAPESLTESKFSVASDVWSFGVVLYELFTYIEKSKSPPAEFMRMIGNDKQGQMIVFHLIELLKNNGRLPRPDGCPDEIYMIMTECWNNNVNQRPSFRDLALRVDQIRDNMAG

Row | SMILES | IC50 (JAK3) [nM] | IC50 (JAK1) [nM] | Inhibition rate on count of invasive eosinophil in BALF (%) [1] [%] | IC50 (JAK2) [nM] | Inhibition rate on count of invasive eosinophil in BALF (%) ([1]; hydrochloride) | inhibition in vivo at 10000 µg/mL, 100 mg/kg [1] [%]
1 | CCOC(=O)NC1CCN(C(=O)c2cc(N[C@H](C)C3CC3)nc(-c3cnn4ccsc34)n2)CC1 [Example 73, Ethyl (1-{[6-{[(1R)-1-cyclopropylethyl]amino}-2-(pyrazolo[5,1-b][1,3]thiazol-7-yl)pyrimidin-4-yl]carbonyl}piperidin-4-yl)carbamate] | 2200 | 73 | 64 | 3200 | – | –
2 | CCOC(=O)NC1CCN(C(=O)c2cc(N[C@H](C)C3CC3)nc(-c3cnn4ccsc34)n2)CC1 [Example 74, Ethyl (1-{[6-{[(1R)-1-cycloproropylethyl]amino}-2-(pyrazolo[5,1-b][1,3]thiazol-7-yl)pyrimidin-4-yl]carbonyl}piperidin-4-yl)carbamate hydrochloride] | 2600 | 95 | – | 3100 | 34 | –
3 | CCC(CC)Nc1cc(C(=O)N2CCC(O)CC2)nc(-c2cnn3ccsc23)n1 [Example 81, (4-Hydroxypiperidin-1-yl) [6-(pentan-3-ylamino)-2-(pyrazolo[5,1-b][1,3]thiazol-7-yl)pyrimidin-4-yl]methanone hydrochloride] | 3300 | 1600 | – | 2200 | – | 43
4 | COC(=O)NC1CCN(C(=O)c2cc(NCC(C)(C)C)nc(-c3cnn4ccsc34)n2)CC1 [Example 87, Methyl [1-({6-[(2,2-dimethylpropyl)amino]-2-(pyrazolo[5,1-b][1,3]thiazol-7-yl)pyrimidin-4-yl}carbonyl)piperidin-4-yl]carbamate hydrochloride] | 9500 | 250 | – | 1600 | – | 24
5 | C[C@@H](Nc1cc(C(=O)N2CCC(NC(=O)OCC(F)F)CC2)nc(-c2cnn3ccsc23)n1)C1CC1 [Example 96, 2,2-Difluoroethyl (1-{[6-{[(1R)-1-cyclopropylethyl]amino}-2-(pyrazolo[5,1-b][1,3]thiazol-7-yl)pyrimidin-4-yl]carbonyl}piperidin-4-yl)carbamate hydrochloride] | 2200 | 250 | – | 1000 | – | 51
6 | C[C@@H](Nc1cc(C(=O)N2CCC(NC(=O)OCC(F)F)CC2)nc(-c2cnn3ccsc23)n1)C(C)(C)C [Example 97, 2,2-Difluoroethyl (1-{[6-{[(2R)-3,3-dimethylbutan-2-yl]amino}-2-(pyrazolo[5,1-b][1,3]thiazol-7-yl)pyrimidin-4-yl]carbonyl}piperidin-4-yl)carbamate hydrochloride] | 2700 | 210 | – | 1300 | – | 43
7 | CC[C@H](C)Nc1cc(C(=O)N2CCC(NC(=O)OC)CC2)nc(-c2cnn3ccsc23)n1 [Example 125, Methyl [1-({6-[(2S)-butan-2-ylamino]-2-(pyrazolo[5,1-b][1,3]thiazol-7-yl)pyrimidin-4-yl}carbonyl)piperidin-4-yl]carbamate hydrochloride] | > 10000 | 210 | – | 4700 | – | 35
8 | CC[C@@H](C)Nc1cc(C(=O)N2CCC(NC(=O)OC)CC2)nc(-c2cnn3ccsc23)n1 [Example 126, Methyl [1-({6-[(2R)-butan-2-ylamino]-2-(pyrazolo[5,1-b][1,3]thiazol-7-yl)pyrimidin-4-yl}carbonyl)piperidin-4-yl]carbamate] | > 10000 | 820 | – | > 10000 | – | 57
